Test results as given in US9562035B2, “Benzamide derivative useful as FASN inhibitors for the treatment of cancer” (Janssen Pharmaceutica NV, priority 2013, dated 2017).
pIC50: −log10 of the molar value.

Assays:
[1] = target: T1, hFASN enzyme (full length) (Homo sapiens, UniProt P49327); assay: Fatty Acid Synthase (FASN) Inhibition Scintillation Proximity Assay; format: biochemical; settings: for pIC50: mean where tested more than once, ~ = standard error of pIC50 larger than 0.5; for inhibition at 10 µM: read-out: FASN % Effect @1E−05M
T1 construct: 10 μL hFASN enzyme (full length, 300 ng, purified in house); made in house
Procedure, shortened: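 Purified full-length human FASN (300 ng) incubated 60 min at room temperature with NADPH, [3H]-acetyl-CoA and malonyl-CoA in 100 mM KH2PO4 pH 7.5, 1 mM DTT; compound at 30 μM to 0.01 μM. [3H]-palmitate captured by SPA imaging beads; IC50 from 4-parameter fit, reported as pIC50.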

[2] = target: T2, FASN Keto-reductase Domain (Homo sapiens, UniProt P49327); assay: Fatty Acid Synthase Keto-Reductase Domain (FASN KR) Inhibition; format: biochemical; settings: mean where tested more than once; read-out: FASN K-R Domain pIC50 (converted)
T2 construct: 10 μL hFASN enzyme (full length, 300 ng, purified in house) and 360 μM NADPH; made in house
Procedure, shortened: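 Full-length human FASN (300 ng) in 100 mM KH2PO4 pH 7.5 with 360 μM NADPH and 180 mM ethyl acetoacetate (stock); A340 decrease read over 20 min at room temperature.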

[3] = system: A2780 ovarian cells; assay: A2780 Ovarian Cell Proliferation Assay in Lipid Reduced Medium, without Palmitate; format: cell-based; settings: Homo sapiens, A2780; lipid reduced medium, without palmitate, 96 h, MTT; read-out: Proliferation A2780 w/o Palmitate pIC50 (converted)
Method: (§1) The biological assays described below correspond to comparative assays for ovarian cell proliferation. […] Compounds active in the absence of palmitate would not be expected to be active in the control.
(§2) 2500 cells were seeded in a 96-well clear well plate in 200 μL RPMI1640 with 10% Fetal Calf Serum (Hyclone), and incubated at 37° C., 5% CO2. Blanks were wells without cells. The next day the culture medium was aspirated and replaced by 160 μL culture medium with 10% Lipid-Reduced Serum (LRS, Hyclone). 20 μL test compound (at concentrations of 30 μM, 10 μM, 3 μM, 1 μM, 0.30 μM, 0.10 μM, 0.03 μM and 0.01 μM)/DMSO dilution followed by 20 μL ethanol-BSA solution were added to a final concentrations of 0.2% DMSO, 0.2% fatty-acid-free BSA, 0.25% ethanol. After 96 h incubation an MTT assay was performed. The absorbance was measured at 544 nm on a SPECTRAMAX.
Raw data generated by the instrument were normalized to % Controlmin values, which were calculated as: % Controlmin=100*(x−mLC)/(mHC−mLC)
where mLC and mHC were the means of the low control wells and high control wells on the plate, after manual exclusion of outliers. A plot of Controlmin versus test compound concentration was fitted to a 4-parameter logistic curve using a non-linear least squares regression method. From the plot, an IC50 (concentration at which 50% inhibition is achieved) was calculated. pIC50 values were calculated as −log(IC50), when IC50 is expressed in molar units.
(§3) Representative compounds of the present invention were tested according to the procedure as described in Biological Example 3 above, with results as listed in Table BIO-3, below.

[4] = system: A2780 ovarian cells; assay: A2780 Ovarian Cell Proliferation Assay in Lipid Reduced Medium, with Palmitate (control); format: cell-based; settings: Homo sapiens, A2780; lipid reduced medium, 25 μM palmitate, 96 h, MTT; read-out: Proliferation A2780 with Palmitate pIC50 (converted)
Method: as §1
as §2, with “palmitate-BSA” for “ethanol-BSA”, “DMSO, 25 μM palmitate (Sigma, P0500, 10 mM stock solution in ethanol)” for “DMSO,”, “incubation,” for “incubation”
A best fit curve was fitted by a minimum sum of squares method, plotting Controlmin versus test compound concentration. From the plot, an IC50 (concentration at which 50% inhibition is achieved) was calculated. pIC50 values, presented in the Table below, were calculated as −log(IC50).
as §3

T2 sequence (P49327 whole entry, the tested form may be a part): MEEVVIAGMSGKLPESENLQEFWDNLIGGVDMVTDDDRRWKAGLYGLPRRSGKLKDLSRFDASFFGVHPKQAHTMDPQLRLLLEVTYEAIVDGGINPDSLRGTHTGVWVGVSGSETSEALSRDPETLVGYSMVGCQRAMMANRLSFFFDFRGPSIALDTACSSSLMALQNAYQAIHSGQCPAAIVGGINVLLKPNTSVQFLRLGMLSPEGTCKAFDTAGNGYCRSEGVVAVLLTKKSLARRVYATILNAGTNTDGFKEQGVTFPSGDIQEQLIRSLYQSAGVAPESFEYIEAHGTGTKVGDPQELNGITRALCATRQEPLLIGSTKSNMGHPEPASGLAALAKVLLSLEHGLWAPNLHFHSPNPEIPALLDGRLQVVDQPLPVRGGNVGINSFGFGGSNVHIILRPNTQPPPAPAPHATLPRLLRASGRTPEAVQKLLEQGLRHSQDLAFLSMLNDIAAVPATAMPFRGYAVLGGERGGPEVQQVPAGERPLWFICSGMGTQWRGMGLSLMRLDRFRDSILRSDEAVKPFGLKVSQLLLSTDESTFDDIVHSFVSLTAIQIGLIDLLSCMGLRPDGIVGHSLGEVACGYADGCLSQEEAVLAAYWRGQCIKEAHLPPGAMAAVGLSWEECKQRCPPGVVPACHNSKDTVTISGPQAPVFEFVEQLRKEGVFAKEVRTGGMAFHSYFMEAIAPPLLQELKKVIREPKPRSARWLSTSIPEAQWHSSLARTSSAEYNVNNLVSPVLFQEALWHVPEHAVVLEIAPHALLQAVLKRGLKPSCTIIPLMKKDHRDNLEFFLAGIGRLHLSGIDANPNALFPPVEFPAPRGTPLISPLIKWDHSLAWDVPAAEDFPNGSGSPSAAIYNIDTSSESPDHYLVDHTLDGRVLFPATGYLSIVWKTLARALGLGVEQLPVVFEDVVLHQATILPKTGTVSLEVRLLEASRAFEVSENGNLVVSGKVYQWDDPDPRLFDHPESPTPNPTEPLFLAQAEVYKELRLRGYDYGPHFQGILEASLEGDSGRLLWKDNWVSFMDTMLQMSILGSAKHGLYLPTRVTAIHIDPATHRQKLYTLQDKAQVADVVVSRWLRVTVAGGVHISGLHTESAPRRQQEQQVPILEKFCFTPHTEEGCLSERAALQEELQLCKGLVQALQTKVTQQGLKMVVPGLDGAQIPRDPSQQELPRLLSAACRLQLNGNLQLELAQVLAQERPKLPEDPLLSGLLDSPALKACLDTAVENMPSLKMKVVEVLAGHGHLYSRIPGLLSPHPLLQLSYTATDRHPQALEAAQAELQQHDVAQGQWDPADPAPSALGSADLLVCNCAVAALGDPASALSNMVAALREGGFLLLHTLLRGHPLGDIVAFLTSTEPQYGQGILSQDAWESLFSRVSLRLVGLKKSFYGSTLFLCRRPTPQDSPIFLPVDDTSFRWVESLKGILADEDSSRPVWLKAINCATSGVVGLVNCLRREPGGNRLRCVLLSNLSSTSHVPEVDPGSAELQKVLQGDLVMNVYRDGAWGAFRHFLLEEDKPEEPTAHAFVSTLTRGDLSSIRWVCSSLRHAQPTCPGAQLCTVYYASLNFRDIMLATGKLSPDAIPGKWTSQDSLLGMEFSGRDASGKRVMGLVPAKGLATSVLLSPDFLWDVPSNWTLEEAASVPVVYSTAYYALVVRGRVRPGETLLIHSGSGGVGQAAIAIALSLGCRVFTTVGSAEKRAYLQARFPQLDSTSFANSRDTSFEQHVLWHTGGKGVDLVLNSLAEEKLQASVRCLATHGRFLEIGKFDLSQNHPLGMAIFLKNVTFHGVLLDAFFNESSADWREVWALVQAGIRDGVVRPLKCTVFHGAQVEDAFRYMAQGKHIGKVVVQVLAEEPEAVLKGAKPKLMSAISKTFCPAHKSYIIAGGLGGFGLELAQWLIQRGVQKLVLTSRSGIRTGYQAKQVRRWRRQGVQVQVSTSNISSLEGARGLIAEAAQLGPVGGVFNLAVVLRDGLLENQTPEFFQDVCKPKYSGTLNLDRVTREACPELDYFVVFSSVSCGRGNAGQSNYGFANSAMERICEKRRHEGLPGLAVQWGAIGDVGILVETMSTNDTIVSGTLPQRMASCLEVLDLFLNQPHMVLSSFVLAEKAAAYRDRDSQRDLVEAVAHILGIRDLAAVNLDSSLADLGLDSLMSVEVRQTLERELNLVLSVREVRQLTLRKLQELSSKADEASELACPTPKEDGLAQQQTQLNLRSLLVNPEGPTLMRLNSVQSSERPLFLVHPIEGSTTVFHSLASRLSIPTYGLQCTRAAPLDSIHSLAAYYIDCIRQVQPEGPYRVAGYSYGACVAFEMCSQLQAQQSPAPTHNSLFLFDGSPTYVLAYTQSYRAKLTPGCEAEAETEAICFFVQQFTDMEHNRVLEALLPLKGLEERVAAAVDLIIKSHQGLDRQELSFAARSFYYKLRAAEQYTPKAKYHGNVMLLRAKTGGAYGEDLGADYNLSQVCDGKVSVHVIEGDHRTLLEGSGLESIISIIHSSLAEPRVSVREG
T1 sequence (P49327 whole entry): as the sequence (P49327 whole entry, the tested form may be a part) above

| Compound | pIC50 [1] | inhibition at 10 µM [1] [%] | IC50 [2] [nM] | IC50 [3] [nM] | IC50 [4] [nM] |
| --- | --- | --- | --- | --- | --- |
| Cc1ccc(C(=O)N2CCC(c3ccc(-c4ccnn4C)cc3)CC2)cc1NC(=O)c1ccc(NC(C)C)nc1 [Compound 44, 6-(Isopropylamino)-N-(2-methyl-5-(4-(4-(1-methyl-1H-pyrazol-5-yl)phenyl)piperidine-1-carbonyl)phenyl)nicotinamide] | 7.21 | 102 | 89.1 | 155 | > 10000 |
| Cc1ccc(C(=O)N2CCC(c3ccc4[nH]c(=O)sc4c3)CC2)cc1NC(=O)c1ccc(Cl)nc1 [Compound 48, 6-chloro-N-(2-methyl-5-(4-(2-oxo-2,3-dihydrobenzo[d]thiazol-6-yl)piperidine-1-carbonyl)phenyl)nicotinamide] | 6.57 | 92 | 457 | 1410 | > 10000 |
| Cc1ccc(C(=O)N2CCC(c3ccc4[nH]c(=O)sc4c3)CC2)cc1NC(=O)c1ccc(NC(C)C)nc1 [Compound 49, 6-(isopropylamino)-N-(2-methyl-5-(4-(2-oxo-2,3-dihydrobenzo[d]thiazol-6-yl)piperidine-1-carbonyl)phenyl)nicotinamide] | 6.92 | 97 | 229 | 813 | > 10000 |
| Cc1ccc(C(=O)N2CCC(c3ccc4c(c3)CC(=O)N4)CC2)cc1NC(=O)c1ccc(Cl)nc1 [Compound 50, 6-chloro-N-(2-methyl-5-(4-(2-oxoindolin-5-yl)piperidine-1-carbonyl)phenyl)nicotinamide] | 6.51 | 93 | 603 | 1230 | > 10000 |
| Cc1ccc(C(=O)N2CC(c3ccc(-c4ccnn4C)cc3)C2)cc1NC(=O)c1ccc2ccccc2n1 [Compound 55, N-(2-methyl-5-(3-(4-(1-methyl-1H-pyrazol-5-yl)phenyl)azetidine-1-carbonyl)phenyl)quinoline-2-carboxamide] | 6.36 | 86 | 513 | ~77.6 | ~85.1 |
| Cc1ccc(C(=O)N2CC(c3ccc(-c4ccnn4C)cc3)C2)cc1NC(=O)c1cncc(Br)c1 [Compound 56, 5-bromo-N-(2-methyl-5-(3-(4-(1-methyl-1H-pyrazol-5-yl)phenyl)azetidine-1-carbonyl)phenyl)nicotinamide] | 6.51 | 95 | 457 | 437 | 912 |
| CC(C)Nc1ccc(C(=O)Nc2cc(C(=O)N3CCC(c4ccc(-c5ccc6cnccc6c5)cc4)CC3)ccc2Cl)cn1 [Compound 67, N-(2-chloro-5-(4-(4-(isoquinolin-6-yl)phenyl)piperidine-1-carbonyl)phenyl)-6-(isopropylamino)nicotinamide] | 6.82 | 92 | ~603 | 234 | 240 |

Now those with a higher pIC50 [1], led by results:

| pIC50 [1] | inhibition at 10 µM [1] [%] | IC50 [2] [nM] | IC50 [3] [nM] | IC50 [4] [nM] | Compound |
| --- | --- | --- | --- | --- | --- |
| 7.67 | 106 | 34.7 | 102 | > 10000 | Cc1ccc(C(=O)N2CCC(c3ccc(-c4cn[nH]c4)cc3)CC2)cc1NC(=O)c1ccc(NC(C)C)nc1 [Compound 42, N-(5-(4-(4-(1H-pyrazol-4-yl)phenyl)piperidine-1-carbonyl)-2-methylphenyl)-6-(isopropylamino)nicotinamide] |
| 7.83 | 110 | 25.1 | ~33.9 | 1700 | Cc1ccc(C(=O)N2CCC(c3ccc(-c4cnoc4)cc3)CC2)cc1NC(=O)c1ccc(NC(C)C)nc1 [Compound 51, 6-(isopropylamino)-N-(5-(4-(4-(isoxazol-4-yl)phenyl)piperidine-1-carbonyl)-2-methylphenyl)nicotinamide] |
| 7.60 | 106 | 25.7 | 45.7 | 6310 | Cc1ccc(C(=O)N2CC(c3ccc(-c4ccnn4C)cc3)C2)cc1NC(=O)c1ccc(N2CCCCC2)nc1 [Compound 57, N-(2-methyl-5-(3-(4-(1-methyl-1H-pyrazol-5-yl)phenyl)azetidine-1-carbonyl)phenyl)-6-(piperidin-1-yl)nicotinamide] |
| 7.95 | 111 | 28.2 | 18.2 | 3720 | Cc1ccc(C(=O)N2CC(c3ccc(-c4ccnn4C)cc3)C2)cc1NC(=O)c1ccc(N2CCOCC2)nc1 [Compound 58, N-(2-methyl-5-(3-(4-(1-methyl-1H-pyrazol-5-yl)phenyl)azetidine-1-carbonyl)phenyl)-6-morpholinonicotinamide] |
| 7.25 | 103 | 115 | 93.3 | 7240 | Cc1ccc(C(=O)N2CC(c3ccc(-c4ccnn4C)cc3)C2)cc1NC(=O)c1ccc(N2CCN(C)CC2)nc1 [Compound 59, N-(2-methyl-5-(3-(4-(1-methyl-1H-pyrazol-5-yl)phenyl)azetidine-1-carbonyl)phenyl)-6-(4-methylpiperazin-1-yl)nicotinamide] |
| 7.71 | 103 | 28.8 | 51.3 | 2750 | Cc1ccc(C(=O)N2CC(c3ccc(-c4ccnn4C)cc3)C2)cc1NC(=O)c1ccc(N(C)C(C)C)nc1 [Compound 60, 6-(isopropyl(methyl)amino)-N-(2-methyl-5-(3-(4-(1-methyl-1H-pyrazol-5-yl)phenyl)azetidine-1-carbonyl)phenyl)nicotinamide] |
| 7.81 | 103 | 69.2 | ~91.2 | 11000 | Cc1ccc(C(=O)N2CC(c3ccc(-c4ccnn4C)cc3)C2)cc1NC(=O)c1ccc(N(C)C2CCN(C)CC2)nc1 [Compound 61, 6-(methyl(1-methylpiperidin-4-yl)amino)-N-(2-methyl-5-(3-(4-(1-methyl-1H-pyrazol-5-yl)phenyl)azetidine-1-carbonyl)phenyl)nicotinamide] |
| 7.79 | 103 | 51.3 | 74.1 | 4170 | Cc1ccc(C(=O)N2CC(c3ccc(-c4ccnn4C)cc3)C2)cc1NC(=O)c1ccc(NC2CCC2)nc1 [Compound 62, 6-(cyclobutylamino)-N-(2-methyl-5-(3-(4-(1-methyl-1H-pyrazol-5-yl)phenyl)azetidine-1-carbonyl)phenyl)nicotinamide] |
| 7.56 | 100 | 24.5 | 53.7 | 3020 | CC(C)Nc1ccc(C(=O)Nc2cc(C(=O)N3CC(c4ccc(-c5ccnc6ccccc56)cc4)C3)ccc2Cl)cn1 [Compound 63, N-(2-chloro-5-(3-(4-(quinolin-4-yl)phenyl)azetidine-1-carbonyl)phenyl)-6-(isopropylamino)nicotinamide] |
| 7.68 | 99 | 28.8 | 56.2 | > 10000 | CC(C)Nc1ccc(C(=O)Nc2cc(C(=O)N3CC(c4ccc(-c5cnn(C)c5)cc4)C3)ccc2Cl)cn1 [Compound 65, N-(2-chloro-5-(3-(4-(1-methyl-1H-pyrazol-4-yl)phenyl)azetidine-1-carbonyl)phenyl)-6-(isopropylamino)nicotinamide] |
